According to patent publication US20230144436A1, “MUSCLE TARGETING COMPLEXES AND USES THEREOF FOR TREATING MYOTONIC DYSTROPHY” (Dyne Therapeutics, Inc., priority 2020, published 2023):

system: DMPK; experiment: DMPK knockdown by transfected antisense oligonucleotides in DM1 C15 myotubes at 0.5 nM and 50 nM; assay type: cell-based; conditions: 0.5 nM oligonucleotide, 72 hours, qPCR, relative to vehicle control
Method: Two hundred and thirty-six oligonucleotides for targeting DMPK were generated using in silico analysis. Each individual oligonucleotide was evaluated for their ability to target DMPK in cellulo at two doses—0.5 nM (low dose) and 50 nM (high dose).
Briefly, DM1 C15 immortalized myoblasts were cultured in T-75 flasks until near confluency (˜80% confluent). Myoblasts were then disrupted with trypsin and seeded into 96-well microplates at a density of 50,000 cells/well. Cells were allowed to recover overnight before the growth media was washed out and replaced with a no-serum media to induce differentiation into myotubes. Differentiation proceeded for seven days prior to treatment with DMPK-targeting oligonucleotides.
On day seven following induction of differentiation, DM1 C15 myotubes were transfected with an individual oligonucleotide using 0.3 μL of Lipofectamine MessengerMax per well. All oligonucleotides were tested at both 0.5 nM and 50 nM final concentrations in biological triplicates. After treatment with oligonucleotides, cells were incubated for 72 hours prior to being harvested for total RNA. cDNA was synthesized from the total RNA extracts and qPCR was performed to determine expression levels of DMPK in technical quadruplicate. All qPCR data were analyzed using a traditional […] method and were normalized to a plate-based negative control that comprised cells treated with vehicle control (0.3 μL/well Lipofectamine MessengerMax without any oligonucleotide). Results from these experiments are shown in Table 10. ‘Normalized DMPK Remaining’ for each antisense oligonucleotide in Table 10 refers to the expression level of DMPK in cell treated with said antisense oligonucleotide relative to the negative control that comprised cells treated with vehicle control (wherein the expression level of the negative control has been normalized to equal 1.00)

Substance | Percent DMPK Reduction [%]
345 (AAGCGCCUCCGAUAGGCCAG; chemistry not given here) [compound 345] | 8.91
347 (GCUCAGCAGUGUCAGCAGGU; chemistry not given here) [compound 347] | 29.18
348 (AUGAUCUUCAUGGCAUACAC; chemistry not given here) [compound 348] | 12.76
349 (UUUGCCCAUCCACGUCAGGG; chemistry not given here) [compound 349] | 32.79
350 (ACUUGCUCAGCAGUGUCAGC; chemistry not given here) [compound 350] | 27.84
351 (UGAUGUCCCUGUGCACGUAG; chemistry not given here) [compound 351] | 20.58
352 (AAAUACCGAGGAAUGUCGGG; chemistry not given here) [compound 352] | 11.25
353 (GGCGAAUACACCCAGCGCCC; chemistry not given here) [compound 353] | 19.77
354 (AGACAAUAAAUACCGAGGAA; chemistry not given here) [compound 354] | 29.37
355 (CCCGUCUGCUUCAUCUUCAC; chemistry not given here) [compound 355] | 20.31
356 (CUGCCUGCAGCAACUCCAUC; chemistry not given here) [compound 356] | 23.10
357 (CCUCAGCCUCUGCCGCAGGG; chemistry not given here) [compound 357] | 10.87
358 (GUGUCCGGAAGUCGCCUGCU; chemistry not given here) [compound 358] | 22.99
359 (UGCACGUGUGGCUCAAGCAG; chemistry not given here) [compound 359] | 10.81
360 (GACAAUAAAUACCGAGGAAU; chemistry not given here) [compound 360] | 28.97
361 (GCCAUGACAAUCUCCGCCAG; chemistry not given here) [compound 361] | 30.96
363 (CAUGACCAGGUACAGGUAGU; chemistry not given here) [compound 363] | 19.39
364 (AGCGCCCACCAGUCACACUC; chemistry not given here) [compound 364] | 30.36

same assay, conditions: 0.5 nM oligonucleotide, 72 hours, qPCR, relative to vehicle control = 1.00

Substance | Normalized DMPK Remaining
345 (AAGCGCCUCCGAUAGGCCAG; chemistry not given here) [compound 345] | 0.91
347 (GCUCAGCAGUGUCAGCAGGU; chemistry not given here) [compound 347] | 0.71
348 (AUGAUCUUCAUGGCAUACAC; chemistry not given here) [compound 348] | 0.87
349 (UUUGCCCAUCCACGUCAGGG; chemistry not given here) [compound 349] | 0.67
350 (ACUUGCUCAGCAGUGUCAGC; chemistry not given here) [compound 350] | 0.72
351 (UGAUGUCCCUGUGCACGUAG; chemistry not given here) [compound 351] | 0.79
352 (AAAUACCGAGGAAUGUCGGG; chemistry not given here) [compound 352] | 0.89
353 (GGCGAAUACACCCAGCGCCC; chemistry not given here) [compound 353] | 0.80
354 (AGACAAUAAAUACCGAGGAA; chemistry not given here) [compound 354] | 0.71
355 (CCCGUCUGCUUCAUCUUCAC; chemistry not given here) [compound 355] | 0.80
356 (CUGCCUGCAGCAACUCCAUC; chemistry not given here) [compound 356] | 0.77
357 (CCUCAGCCUCUGCCGCAGGG; chemistry not given here) [compound 357] | 0.89
358 (GUGUCCGGAAGUCGCCUGCU; chemistry not given here) [compound 358] | 0.77
359 (UGCACGUGUGGCUCAAGCAG; chemistry not given here) [compound 359] | 0.89
360 (GACAAUAAAUACCGAGGAAU; chemistry not given here) [compound 360] | 0.71
361 (GCCAUGACAAUCUCCGCCAG; chemistry not given here) [compound 361] | 0.69
363 (CAUGACCAGGUACAGGUAGU; chemistry not given here) [compound 363] | 0.81
364 (AGCGCCCACCAGUCACACUC; chemistry not given here) [compound 364] | 0.70

same assay, conditions: 50 nM oligonucleotide, 72 hours, qPCR, relative to vehicle control

Substance | Percent DMPK Reduction [%]
345 (AAGCGCCUCCGAUAGGCCAG; chemistry not given here) [compound 345] | 43.93
347 (GCUCAGCAGUGUCAGCAGGU; chemistry not given here) [compound 347] | 73.46
348 (AUGAUCUUCAUGGCAUACAC; chemistry not given here) [compound 348] | 39.97
349 (UUUGCCCAUCCACGUCAGGG; chemistry not given here) [compound 349] | 59.36
350 (ACUUGCUCAGCAGUGUCAGC; chemistry not given here) [compound 350] | 60.71
351 (UGAUGUCCCUGUGCACGUAG; chemistry not given here) [compound 351] | 59.00
352 (AAAUACCGAGGAAUGUCGGG; chemistry not given here) [compound 352] | 50.91
353 (GGCGAAUACACCCAGCGCCC; chemistry not given here) [compound 353] | 68.72
354 (AGACAAUAAAUACCGAGGAA; chemistry not given here) [compound 354] | 48.20
355 (CCCGUCUGCUUCAUCUUCAC; chemistry not given here) [compound 355] | 43.97
356 (CUGCCUGCAGCAACUCCAUC; chemistry not given here) [compound 356] | 46.69
357 (CCUCAGCCUCUGCCGCAGGG; chemistry not given here) [compound 357] | 55.22
358 (GUGUCCGGAAGUCGCCUGCU; chemistry not given here) [compound 358] | 73.65
359 (UGCACGUGUGGCUCAAGCAG; chemistry not given here) [compound 359] | 64.18
360 (GACAAUAAAUACCGAGGAAU; chemistry not given here) [compound 360] | 47.51
361 (GCCAUGACAAUCUCCGCCAG; chemistry not given here) [compound 361] | 81.00
363 (CAUGACCAGGUACAGGUAGU; chemistry not given here) [compound 363] | 59.09
364 (AGCGCCCACCAGUCACACUC; chemistry not given here) [compound 364] | 63.67

same assay, conditions: 50 nM oligonucleotide, 72 hours, qPCR, relative to vehicle control = 1.00

Substance | Normalized DMPK Remaining
345 (AAGCGCCUCCGAUAGGCCAG; chemistry not given here) [compound 345] | 0.56
347 (GCUCAGCAGUGUCAGCAGGU; chemistry not given here) [compound 347] | 0.27
348 (AUGAUCUUCAUGGCAUACAC; chemistry not given here) [compound 348] | 0.60
349 (UUUGCCCAUCCACGUCAGGG; chemistry not given here) [compound 349] | 0.41
350 (ACUUGCUCAGCAGUGUCAGC; chemistry not given here) [compound 350] | 0.39
351 (UGAUGUCCCUGUGCACGUAG; chemistry not given here) [compound 351] | 0.41
352 (AAAUACCGAGGAAUGUCGGG; chemistry not given here) [compound 352] | 0.49
353 (GGCGAAUACACCCAGCGCCC; chemistry not given here) [compound 353] | 0.31
354 (AGACAAUAAAUACCGAGGAA; chemistry not given here) [compound 354] | 0.52
355 (CCCGUCUGCUUCAUCUUCAC; chemistry not given here) [compound 355] | 0.56
356 (CUGCCUGCAGCAACUCCAUC; chemistry not given here) [compound 356] | 0.53
357 (CCUCAGCCUCUGCCGCAGGG; chemistry not given here) [compound 357] | 0.45
358 (GUGUCCGGAAGUCGCCUGCU; chemistry not given here) [compound 358] | 0.26
359 (UGCACGUGUGGCUCAAGCAG; chemistry not given here) [compound 359] | 0.36
360 (GACAAUAAAUACCGAGGAAU; chemistry not given here) [compound 360] | 0.52
361 (GCCAUGACAAUCUCCGCCAG; chemistry not given here) [compound 361] | 0.19
363 (CAUGACCAGGUACAGGUAGU; chemistry not given here) [compound 363] | 0.41
364 (AGCGCCCACCAGUCACACUC; chemistry not given here) [compound 364] | 0.36
